Test results as given in ChEMBL document CHEMBL1154047, “Chiral gossypol derivatives: evaluation of their anticancer activity and molecular modeling” (Eur J Med Chem, 2009).
Values joined by “and” are separate entries in the source; they are usually repeats but may differ in a detail not shown here. Identical values can stand only once.

Experiments:
HeLa [1] = assay: Anticancer activity against human HeLa cells after 48 hrs by MTT assay; type: functional, cell-based
[2] = Anticancer activity against human U87 cells after 48 hrs by MTT assay; type: functional, cell-based, U-87MG ATCC
[3] = Anticancer activity against human M85 cells after 48 hrs by MTT assay; type: functional, cell-based
HeLa [4] = assay: Ratio of compound IC50 to (-)-gossypol IC50 for human HeLa cells; type: functional
[5] = Ratio of compound IC50 to (-)-gossypol IC50 for human U87 cells; type: functional, U-87MG ATCC
[6] = Ratio of compound IC50 to (-)-gossypol IC50 for human M85 cells; type: functional
HeLa [7] = assay: Ratio of compound IC50 to cisplatin IC50 for human HeLa cells; type: functional
[8] = Ratio of compound IC50 to cisplatin IC50 for human U87 cells; type: functional, U-87MG ATCC
[9] = Ratio of compound IC50 to cisplatin IC50 for human M85 cells; type: functional

Structure (SMILES) | IC50 (HeLa [1]; hela) [µM] | IC50 ([2]; u-87mg atcc) [µM] | IC50 ([3]; m85) | Ratio IC50 (HeLa [4]) | Ratio IC50 [5] | Ratio IC50 [6] | Ratio IC50 (HeLa [7]) | Ratio IC50 [8] | Ratio IC50 [9] | IC50 (HeLa [1]; Homo sapiens, HeLa, 48 h) [µM] | IC50 ([2]; Homo sapiens, U-87 MG, 48 h) [µM] | IC50 ([3]; Homo sapiens, M85, 48 h) [µM]
Cc1cc2c(c(O)c1-c1c(C)cc3c(c1O)/C(=C/N[C@H](CO)[C@H](O)c1ccc([N+](=O)[O-])cc1)C(=O)C(O)=C3C(C)C)/C(=C/N[C@H](CO)[C@H](O)c1ccc([N+](=O)[O-])cc1)C(=O)C(O)=C2C(C)C (stereo in doubt; 1a) | 19.6 | 30.6 | 19 µM | 1.1 | 1.01 | 1.03 | 1.56 | 1.79 | 1.28 |  |  | 
Cc1cc2c(c(O)c1-c1c(C)cc3c(c1O)/C(=C/N[C@H](CO)[C@H](O)c1ccc([N+](=O)[O-])cc1)C(=O)C(O)=C3C(C)C)/C(=C/N[C@H](CO)[C@H](O)c1ccc([N+](=O)[O-])cc1)C(=O)C(O)=C2C(C)C (stereo in doubt; 1b) | 8.7 | 13.3 | < 2.5 µM | 0.49 | 0.44 | <0.14 | 0.69 | 0.78 | <0.17 |  |  | 
Cc1cc2c(c(O)c1-c1c(C)cc3c(c1O)/C(=C/N[C@H](CO)Cc1ccccc1)C(=O)C(O)=C3C(C)C)/C(=C/N[C@H](CO)Cc1ccccc1)C(=O)C(O)=C2C(C)C (stereo in doubt; 2a) |  |  |  | 1.49 | 0.98 | 1.17 | 2.1 | 1.73 | 1.44 | 26.5 | 29.5 | 21.5
Cc1cc2c(c(O)c1-c1c(C)cc3c(c1O)/C(=C/N[C@H](CO)Cc1ccccc1)C(=O)C(O)=C3C(C)C)/C(=C/N[C@H](CO)Cc1ccccc1)C(=O)C(O)=C2C(C)C (stereo in doubt; 2b) | 14.7 | 29.3 | 15.5 µM | 0.83 | 0.97 | 0.84 | 1.17 | 1.71 | 1.04 |  |  | 
Cc1cc2c(c(O)c1-c1c(C)cc3c(c1O)/C(=C/NCCc1ccccc1)C(=O)C(O)=C3C(C)C)/C(=C/NCCc1ccccc1)C(=O)C(O)=C2C(C)C (stereo in doubt; 3a) |  |  |  | 2.91 |  |  | 4.11 |  |  | 51.8 | > 80 | > 80
Cc1cc2c(c(O)c1-c1c(C)cc3c(c1O)/C(=C/NCCc1ccccc1)C(=O)C(O)=C3C(C)C)/C(=C/NCCc1ccccc1)C(=O)C(O)=C2C(C)C (stereo in doubt; 3b) | 39.9 |  |  | 2.24 |  |  | 3.17 |  |  |  |  | 
Cc1cc2c(c(O)c1-c1c(C)cc3c(c1O)/C(=C/NCCCO)C(=O)C(O)=C3C(C)C)/C(=C/NCCCO)C(=O)C(O)=C2C(C)C (stereo in doubt; 4a) |  | 29 | 21.1 µM | 0.6 | 0.96 | 1.15 | 0.85 | 1.7 | 1.42 | 10.7 |  | 
Cc1cc2c(c(O)c1-c1c(C)cc3c(c1O)/C(=C/NCCCO)C(=O)C(O)=C3C(C)C)/C(=C/NCCCO)C(=O)C(O)=C2C(C)C (stereo in doubt; 4b) | 12.5 | 12.1 | 5.4 µM | 0.7 | 0.4 | 0.29 | 0.99 | 0.71 | 0.36 |  |  | 
Cc1cc2c(c(O)c1-c1c(C)cc3c(c1O)/C(=C/NC1CC1)C(=O)C(O)=C3C(C)C)/C(=C/NC1CC1)C(=O)C(O)=C2C(C)C (stereo in doubt; 5a) | 55.9 | > 80 |  | 3.14 |  | 0.95 | 4.44 |  | 1.17 |  |  | 17.4
Cc1cc2c(c(O)c1-c1c(C)cc3c(c1O)/C(=C/NC1CC1)C(=O)C(O)=C3C(C)C)/C(=C/NC1CC1)C(=O)C(O)=C2C(C)C (stereo in doubt; 5b) | 13.5 | 32.4 | 17.5 µM | 0.76 | 1.07 |  | 1.07 | 1.89 |  |  |  | 
Cc1cc2c(c(O)c1-c1c(C)cc3c(c1O)/C(=C/Nc1ccc(Br)cc1)C(=O)C(O)=C3C(C)C)/C(=C/Nc1ccc(Br)cc1)C(=O)C(O)=C2C(C)C (stereo in doubt; 6a) |  |  |  | 4.14 |  |  | 5.85 |  |  | 73.7 | > 80 | > 80
Cc1cc2c(c(O)c1-c1c(C)cc3c(c1O)/C(=C/Nc1ccc(Br)cc1)C(=O)C(O)=C3C(C)C)/C(=C/Nc1ccc(Br)cc1)C(=O)C(O)=C2C(C)C (stereo in doubt; 6b) | 49.2 |  | 78.4 µM | 2.76 |  | 4.26 | 3.9 |  | 5.26 |  |  | 
COC(=O)[C@H](Cc1ccccc1)N/C=C1\C(=O)C(O)=C(C(C)C)c2cc(C)c(-c3c(C)cc4c(c3O)/C(=C/N[C@@H](Cc3ccccc3)C(=O)OC)C(=O)C(O)=C4C(C)C)c(O)c21 (stereo in doubt; 7a) |  |  |  |  |  |  |  |  |  | > 80 | > 80 | > 80
COC(=O)[C@H](Cc1ccccc1)N/C=C1\C(=O)C(O)=C(C(C)C)c2cc(C)c(-c3c(C)cc4c(c3O)/C(=C/N[C@@H](Cc3ccccc3)C(=O)OC)C(=O)C(O)=C4C(C)C)c(O)c21 (stereo in doubt; 7b) | 69 |  | 64.4 µM | 3.88 |  | 3.5 | 5.48 |  | 4.32 |  |  | 
COC(=O)[C@H](Cc1ccc(O)cc1)N/C=C1\C(=O)C(O)=C(C(C)C)c2cc(C)c(-c3c(C)cc4c(c3O)/C(=C/N[C@@H](Cc3ccc(O)cc3)C(=O)OC)C(=O)C(O)=C4C(C)C)c(O)c21 (stereo in doubt; 8a) |  | 32.1 | 52.4 µM | 1.22 | 1.06 | 2.84 | 1.73 | 1.88 | 3.52 | 21.8 |  | 
COC(=O)[C@H](Cc1ccc(O)cc1)N/C=C1\C(=O)C(O)=C(C(C)C)c2cc(C)c(-c3c(C)cc4c(c3O)/C(=C/N[C@@H](Cc3ccc(O)cc3)C(=O)OC)C(=O)C(O)=C4C(C)C)c(O)c21 (stereo in doubt; 8b) | 11.4 | 14.5 | 16.3 µM | 0.64 | 0.48 | 0.89 | 0.9 | 0.85 | 1.09 |  |  | 
COC(=O)[C@H](Cc1c[nH]c2ccccc12)N/C=C1\C(=O)C(O)=C(C(C)C)c2cc(C)c(-c3c(C)cc4c(c3O)/C(=C/N[C@@H](Cc3c[nH]c5ccccc35)C(=O)OC)C(=O)C(O)=C4C(C)C)c(O)c21 (stereo in doubt; 9a) |  |  |  |  |  |  |  |  |  | > 80 | > 80 | > 80
COC(=O)[C@H](Cc1c[nH]c2ccccc12)N/C=C1\C(=O)C(O)=C(C(C)C)c2cc(C)c(-c3c(C)cc4c(c3O)/C(=C/N[C@@H](Cc3c[nH]c5ccccc35)C(=O)OC)C(=O)C(O)=C4C(C)C)c(O)c21 (stereo in doubt; 9b) |  |  | 52.3 µM |  |  | 2.84 |  |  | 3.51 |  |  | 
Cc1cc2c(c(O)c1-c1c(C)cc3c(c1O)/C(=C/NC(C)C)C(=O)C(O)=C3C(C)C)/C(=C/NC(C)C)C(=O)C(O)=C2C(C)C (stereo in doubt; 10a) |  |  |  | 1.34 | 0.96 | 1.86 | 1.88 | 1.7 | 2.3 | 23.8 | 29.1 | 34.2
Cc1cc2c(c(O)c1-c1c(C)cc3c(c1O)/C(=C/NC(C)C)C(=O)C(O)=C3C(C)C)/C(=C/NC(C)C)C(=O)C(O)=C2C(C)C (stereo in doubt; 10b) | 17.1 | 24.4 | 30.4 µM | 0.96 | 0.81 | 1.66 | 1.36 | 1.43 | 2.04 |  |  | 
COc1c(OC)c2c3c(c(-c4c(C)cc5c(C(C)C)c(OC)c(OC)c6c5c4OC6OC)c(C)cc3c1C(C)C)OC2OC (stereo not drawn) [(-)-GOSSYPOL HEXAMETHYL ETHER] |  |  |  |  |  |  |  |  |  | > 80 | > 80 | > 80
Cc1cc2c(C(C)C)c(O)c(O)cc2c(O)c1-c1c(C)cc2c(C(C)C)c(O)c(O)cc2c1O [APOGOSSYPOL] | 14.1 | 28.5 | 61.2 µM | 1.43 and 0.79 | 1.17 and 0.94 | 3.33 | 2.02 and 1.12 | 2.08 and 1.67 | 4.11 | 25.5 | 35.5 | > 80
CC1=C(C2=C(C)C(=O)c3c(c(C=O)c(O)c(O)c3C(C)C)C2=O)C(=O)c2c(C=O)c(O)c(O)c(C(C)C)c2C1=O [GOSSYPOLONE] |  |  |  | 1.31 | 0.86 | 1.54 | 1.85 | 1.53 | 1.9 | 23.3 | 26.1 | 28.3
Cc1cc2c(C(C)C)c(O)c(O)c(C=O)c2c(O)c1-c1c(C)cc2c(C(C)C)c(O)c(O)c(C=O)c2c1O [GOSSYPOL] | 31.3 | 59.6 | 18.4 µM and 39.7 µM | 1 and 1.76 | 1 and 1.97 | 1 and 2.16 | 1.41 and 2.48 | 1.77 and 3.49 | 1.23 and 2.66 | 17.8 | 30.2 | 
